biological target: T1, USP28 (USP28-5(1-1077)-TEV-6*His; LifeSensors) (Homo sapiens, UniProt Q96RU2); assay: Ubiquitin-Rhodamine 110 Assay for USP28 Activity, Example A-1(b); format: biochemical; conditions: Ub-Rh110 assay, Example A-1(b)
T1 construct: construct USP28 (USP28-5(1-1077)-TEV-6*His; LifeSensors); TEV cleavage site (C); 6xHis (C); purchased LifeSensors
T1 sequence (Q96RU2 1-1077): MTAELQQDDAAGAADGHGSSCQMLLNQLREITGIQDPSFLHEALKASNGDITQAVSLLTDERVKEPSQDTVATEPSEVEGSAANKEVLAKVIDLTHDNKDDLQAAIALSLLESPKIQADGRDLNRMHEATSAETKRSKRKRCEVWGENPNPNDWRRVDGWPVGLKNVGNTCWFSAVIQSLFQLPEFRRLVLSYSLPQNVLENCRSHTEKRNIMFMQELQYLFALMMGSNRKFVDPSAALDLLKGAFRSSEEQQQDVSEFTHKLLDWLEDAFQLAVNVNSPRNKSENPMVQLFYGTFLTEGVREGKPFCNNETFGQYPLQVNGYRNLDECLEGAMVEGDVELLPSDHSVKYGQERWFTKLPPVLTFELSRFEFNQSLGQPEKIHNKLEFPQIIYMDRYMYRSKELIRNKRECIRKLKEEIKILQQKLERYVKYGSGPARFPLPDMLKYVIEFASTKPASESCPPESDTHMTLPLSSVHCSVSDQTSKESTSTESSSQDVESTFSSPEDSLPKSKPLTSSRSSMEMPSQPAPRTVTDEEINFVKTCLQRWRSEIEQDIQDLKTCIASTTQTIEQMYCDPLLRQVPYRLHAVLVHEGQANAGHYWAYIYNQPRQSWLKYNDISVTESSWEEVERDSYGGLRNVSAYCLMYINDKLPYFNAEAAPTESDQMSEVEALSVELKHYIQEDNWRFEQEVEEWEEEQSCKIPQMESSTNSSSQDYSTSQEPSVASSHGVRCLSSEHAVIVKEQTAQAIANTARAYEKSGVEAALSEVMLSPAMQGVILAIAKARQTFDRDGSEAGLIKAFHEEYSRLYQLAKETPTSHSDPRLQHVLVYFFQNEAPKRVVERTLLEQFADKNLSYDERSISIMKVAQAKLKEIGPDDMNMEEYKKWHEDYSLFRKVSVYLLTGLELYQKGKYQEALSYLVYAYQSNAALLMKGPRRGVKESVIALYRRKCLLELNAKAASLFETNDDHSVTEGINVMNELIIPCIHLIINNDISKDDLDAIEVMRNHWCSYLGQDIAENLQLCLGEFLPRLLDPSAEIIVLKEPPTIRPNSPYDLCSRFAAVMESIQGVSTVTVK
In short: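 Single-point screening used 10 μM compound with 90 min room-temperature incubation; follow-up dose-responses (25 μM top, 3-fold) used 75 pM USP28 1-1077 construct, 30 min compound preincubation, 25 nM Ub-Rh110, 20 min reaction, citric acid quench. Rh110 fluorescence normalised to no-enzyme and DMSO controls; IC50 from 4-parameter logistic fit.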

SMILES	USP28 A-1(b) IC50 range
Cc1nc2sc(C(=O)N[C@@H]3COc4cc(N5CCNCC5)ccc4C3)c(N)c2cc1F (single isomer, unassigned) [Example 1-16]	+ (>2 μM)
Cc1ccc2c(N)c(C(=O)N[C@@H]3COc4cc(N5CC6CC(C5)N6)cc(F)c4C3)sc2n1 (single isomer, unassigned) [Example 1-41]	+++ (0.05-0.2 μM)
Cc1ccc2c(N)c(C(=O)N[C@H]3COc4cc(N5CCNCC5)c(F)cc4C3)sc2n1 [Example 1-35, (R)-3-amino-N-(6-fluoro-7-(piperazin-1-yl)chroman-3-yl)-6-methylthieno[2,3-b]pyridine-2-carboxamide]	+++ (0.05-0.2 μM)
Cc1nc2sc(C(=O)N[C@@H]3COc4cc(N5CC6CCC(C5)N6)cc(F)c4C3)c(N)c2s1 (single isomer, unassigned) [Example 1-40]	+ (>2 μM)
Cc1cnc2c(N)c(C(=O)N[C@H]3COc4cc(N5CC6CNCC(C5)O6)ccc4C3)sc2n1 [Example 2-13, N-((3R)-7-(9-oxa-3,7-diazabicyclo[3.3.1]nonan-3-yl)chroman-3-yl)-7-amino-3-methylthieno[2,3-b]pyrazine-6-carboxamide]	++ (0.2-2 μM)
Cc1ccc2c(N)c(C(=O)N[C@H]3COc4cc(N5CC6CCC(C5)N6)ccc4C3)sc2n1 (single isomer, unassigned) [Example 1-3]	+++ (0.05-0.2 μM)
Cc1ccc2c(N)c(C(=O)N[C@H]3COc4cc(N5CCNCC56COC6)ccc4C3)sc2n1 [Example 2-10]	+++ (0.05-0.2 μM)
Cc1nc2sc(C(=O)N[C@H]3COc4cc(N5CC6CCC(C5)N6)cc(F)c4C3)c(N)c2s1 (single isomer, unassigned) [Example 1-39]	++ (0.2-2 μM)
Cc1ccc2c(N)c(C(=O)N[C@H]3COc4cc(N5CCNC[C@H]5C)ccc4C3)sc2n1 [Example 2-5, 3-amino-6-methyl-N-((R)-7-((R)-2-methylpiperazin-1-yl)chroman-3-yl)thieno[2,3-b]pyridine-2-carboxamide]	++++ (0.001-0.05 μM)
Cc1nc2sc(C(=O)N[C@H]3COc4cc(N5CC6CCCC(C5)N6)ccc4C3)c(N)c2s1 [Example 2-27]	++ (0.2-2 μM)
Cc1ccc2c(N)c(C(=O)N[C@H]3COc4cc(N5CCCC56CNC6)ccc4C3)sc2n1 [Example 2-7, (R)-N-(7-(2,5-diazaspiro[3.4]octan-5-yl)chroman-3-yl)-3-amino-6-methylthieno[2,3-b]pyridine-2-carboxamide]	+++ (0.05-0.2 μM)
Cc1nc2sc(C(=O)N[C@@H]3COc4cc(N5CCNCC5)cc(F)c4C3)c(N)c2s1 (single isomer, unassigned) [Example 1-38]	++ (0.2-2 μM)
Cc1cnc2c(N)c(C(=O)N[C@H]3COc4cc(N5CC6CC(C5)N6)ccc4C3)sc2n1 [Example 2-11, N-((3R)-7-(3,6-diazabicyclo[3.1.1]heptan-3-yl)chroman-3-yl)-7-amino-3-methylthieno[2,3-b]pyrazine-6-carboxamide]	++ (0.2-2 μM)
Cc1ccc2c(N)c(C(=O)N[C@@H]3COc4cc(N5CCNCC5)c(OC(F)(F)F)cc4C3)sc2n1 (single isomer, unassigned) [Example 1-32]	++ (0.2-2 μM)
Cc1cc(C(F)(F)F)c2c(N)c(C(=O)N[C@H]3COc4cc(N5CC6CC(C5)N6)ccc4C3)sc2n1 [Example 2-21]	++ (0.2-2 μM)
Cc1nc2sc(C(=O)N[C@H]3COc4cc(N5CC6CNCC(C5)C6(F)F)ccc4C3)c(N)c2s1 [Example 2-28, 6-amino-N-((3R)-7-(9,9-difluoro-3,7-diazabicyclo[3.3.1]nonan-3-yl)chroman-3-yl)-2-methylthieno[2,3-d]thiazole-5-carboxamide]	+++ (0.05-0.2 μM)

SMILES	USP28 A-1(b) IC50 range
Cc1ccc2c(N)c(C(=O)N[C@H]3COc4cc(N5CCC[C@@](N)(C(F)(F)F)C5)ccc4C3)sc2n1 (single isomer, unassigned) [Example 3-3]	++++ (0.001-0.05 μM)
Cc1ccc2c(N)c(C(=O)N[C@@H]3COc4cc(N5CCN[C@H](C)[C@H]5C)ccc4C3)sc2n1 (single isomer, unassigned) [Example 1-12]	++++ (0.001-0.05 μM)
Cc1ccc2c(N)c(C(=O)N[C@H]3COc4cc(N5CCN[C@H](C)[C@@H]5C)ccc4C3)sc2n1 (single isomer, unassigned) [Example 1-9]	++ (0.2-2 μM)
Cc1cnc2c(N)c(C(=O)N[C@@H]3CCc4cc(N5CCNCC5)c(C)cc4C3)sc2n1 (single isomer, unassigned) [Example 2-35]	+ (>2 μM)
O=C(N[C@H]1COc2cc(N3CC4CCC(C3)N4)ccc2C1)c1cnc2c(c1)C1(CCN2)CC1 [Example 2-24, N-((3R)-7-(3,8-diazabicyclo[3.2.1]octan-3-yl)chroman-3-yl)-2′,3′-dihydro-1′H-spiro[cyclopropane-1,4′-[1,8]naphthyridine]-6′-carboxamide]	+ (>2 μM)
Cc1nc2sc(C(=O)N[C@H]3COc4cc(N5CCNCC5)cc(F)c4C3)c(N)c2s1 (single isomer, unassigned) [Example 1-37]	+ (>2 μM)
Cc1ccc2c(N)c(C(=O)N[C@H]3COc4cc(N5CC6CNCC(C5)C6(F)F)c(C#N)cc4C3)sc2n1 [Example 2-33, 3-amino-N-((3R)-6-cyano-7-(9,9-difluoro-3,7-diazabicyclo[3.3.1]nonan-3-yl)chroman-3-yl)-6-methylthieno[2,3-b]pyridine-2-carboxamide]	++++ (0.001-0.05 μM)
Cc1cnc2c(N)c(C(=O)N[C@@H]3CCc4c(ccc(N5CCNCC5)c4C)C3)sc2n1 (single isomer, unassigned) [Example 2-37]	+++ (0.05-0.2 μM)
Cc1ccc2c(N)c(C(=O)N[C@H]3COc4cc(N5CCNC[C@@H]5C)ccc4C3)sc2n1 [Example 2-4, 3-amino-6-methyl-N-((R)-7-((S)-2-methylpiperazin-1-yl)chroman-3-yl)thieno[2,3-b]pyridine-2-carboxamide]	++++ (0.001-0.05 μM)
Cc1ccc2c(N)c(C(=O)N[C@@H]3COc4cc(N5CCNCC5)ccc4C3)sc2n1 (single isomer, unassigned) [Example 1-2]	+ (>2 μM)
Cc1ccc2c(N)c(C(=O)N[C@H]3COc4cc(N5CCN[C@@H](C)C5)ccc4C3)sc2n1 [Example 2-8, 3-amino-6-methyl-N-((R)-7-((S)-3-methylpiperazin-1-yl)chroman-3-yl)thieno[2,3-b]pyridine-2-carboxamide]	++ (0.2-2 μM)
Cc1ccc2c(N)c(C(=O)N[C@@H]3COc4cc(N5CCNCC5)c(F)cc4C3)sc2n1 [Example 1-36, (S)-3-amino-N-(6-fluoro-7-(piperazin-1-yl)chroman-3-yl)-6-methylthieno[2,3-b]pyridine-2-carboxamide]	+ (>2 μM)
CCn1ccc2cc(C(=O)N[C@H]3COc4cc(N5CC6CCC(C5)N6)ccc4C3)cnc21 (single isomer, unassigned) [Example 1-28]	+++ (0.05-0.2 μM)
Cc1ccc2c(N)c(C(=O)N[C@@H]3COc4c(ccc(N5CCNCC5)c4F)C3)sc2n1 [Example 1-34, (S)-3-amino-N-(8-fluoro-7-(piperazin-1-yl)chroman-3-yl)-6-methylthieno[2,3-b]pyridine-2-carboxamide]	+ (>2 μM)
Cc1cc(C)c2c(N)c(C(=O)N[C@H]3COc4cc(N5CC6CNCC(C5)C6(F)F)ccc4C3)sc2n1 [Example 2-19, 3-amino-N-((3R)-7-(9,9-difluoro-3,7-diazabicyclo[3.3.1]nonan-3-yl)chroman-3-yl)-4,6-dimethylthieno[2,3-b]pyridine-2-carboxamide]	++++ (0.001-0.05 μM)
Cc1cc(C)c2c(N)c(C(=O)N[C@H]3COc4cc(N5CC6CNCC(C5)O6)ccc4C3)sc2n1 [Example 2-20, N-((3R)-7-(9-oxa-3,7-diazabicyclo[3.3.1]nonan-3-yl)chroman-3-yl)-3-amino-4,6-dimethylthieno[2,3-b]pyridine-2-carboxamide]	+++ (0.05-0.2 μM)
